# Measurements reported in patent US10570117B2, “Phenylimidazole compound” (Otsuka Pharmaceutical Factory, Inc., priority 2015, dated 2020).
# Read-outs that look alike come from different tables or passages of the source.
# Assays:
# [1] = Solubility in gastric juice or intestinal juice model fluid (precipitation method using DMSO); assay type: physicochemical; settings: room temperature
# Method in brief: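 Compound in DMSO added to JP disintegration test fluid 1 (pH 1.2) or fluid 2 (pH 6.8) and shaken 24 h at room temperature. After filtration, dissolved concentration (μg/mL) determined by UV absorbance against compound calibration curves.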
# [2] = system: lipoprotein lipase (LPL) gene; assay: LPL mRNA elevating action (RT-PCR quantification of LPL mRNA in C2Cl2 cells); assay type: cell-based, mouse; settings: Mus musculus, 24 h, compound 10 μM, ratio relative to the amount of LPL mRNA in cells with DMSO only, read-out: Rate of increase in LPL mRNA
# Method in brief: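 Mouse striated-muscle C2Cl2 cells in DMEM with 10% FBS exposed to compounds at 10 μM for 24 h. LPL mRNA quantified by RT-PCR and real-time PCR (20 cycles), expressed as ratio to DMSO-only cells set at 1.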
# [3] = pH 1.2, simulated gastric fluid, kinetic from dmso stock, 1st fluid for Disintegration Test of Japanese Pharmacopoeia (pH: 1.2), read-out: Solubility (μg/mL) 1st fluid
# [4] = pH 6.8, kinetic from dmso stock, 2nd fluid for Disintegration Test of Japanese Pharmacopoeia (pH: 6.8), read-out: Solubility (μg/mL) 2nd fluid
melting point,"solubility at 24 h [1, 3]","solubility at 24 h [1, 4]",Compound,fold induction at 10 µM [2]
203 to 204 °C,110 µg/mL,0.7 µg/mL,COc1cc(-c2[nH]c(C3CCC(F)(F)CC3)nc2Br)ccc1OCc1ncc(C(F)(F)F)cc1F [Example 327],3.06
102 to 104 °C,44.2 µg/mL,0.4 µg/mL,CCOC(C)n1cc(-c2ccc(OCc3ccc(C(F)(F)F)nc3)cc2OC)nc1-c1ccc(F)nc1 (stereo not shown) [Example 328],2.41
195 to 208 °C,5.8 µg/mL,13.6 µg/mL,COc1cc(OCc2ccc(C(F)(F)F)nc2)ccc1-c1[nH]c(-c2ccc(F)nc2)nc1I [Example 329],2.96
129 to 131 °C,6.5 µg/mL,0.9 µg/mL,CCOC(C)n1c(-c2ccc(F)nc2)nc(-c2ccc(OCc3ccc(C(F)(F)F)nc3)cc2OC)c1I (stereo not shown) [Example 330],1.88
100 to 105 °C,94.6 µg/mL,8 µg/mL,COc1cc(OCc2ncc(C(F)(F)F)cc2F)ccc1-c1[nH]c(-c2ccc(F)nc2)nc1C [Example 331],2.17
169 to 171 °C,77.7 µg/mL,3.3 µg/mL,COc1cc(OCc2ccccc2)ccc1-c1[nH]c(-c2ccc(F)nc2)nc1C [Example 332],1.91
154 to 159 °C,59 µg/mL,5.2 µg/mL,COc1cc(O)ccc1-c1[nH]c(-c2ccc(F)nc2)nc1C [Example 333],1.22
153 to 158 °C,76.6 µg/mL,7.8 µg/mL,COc1cc(OCc2noc(C3CC3)n2)ccc1-c1cnc(-c2ccc(F)nc2)[nH]1 [Example 334],1.78
105 to 110 °C,93.4 µg/mL,6.6 µg/mL,COc1cc(OCc2ncc(C(F)(F)F)cc2F)ccc1-c1cnc(C2CCC(F)(F)CC2)[nH]1 [Example 335],2.37
172 to 174 °C,89.3 µg/mL,0.4 µg/mL,COc1cc(OCc2ncc(C(F)(F)F)cc2F)ccc1-c1[nH]c(C2CCC(F)(F)CC2)nc1Cl [Example 336],3.23
190 to 191 °C,110 µg/mL,0.5 µg/mL,COc1cc(OCc2ncc(C(F)(F)F)cc2F)ccc1-c1[nH]c(C2CCC(F)(F)CC2)nc1Br [Example 337],3.07
131 to 136 °C,> 62 µg/mL,58.9 µg/mL,COc1cc(-c2cnc(C3CCC(F)(F)CC3)[nH]2)ccc1O [Example 339],1.32
> 270 °C,50 µg/mL,39.2 µg/mL,Oc1ccc(-c2cnc(-c3ccc(F)nc3)[nH]2)cc1 [Example 343],1.42
174 to 177 °C,85.9 µg/mL,4.6 µg/mL,Fc1ccc(-c2ncc(-c3ccc(OCc4ncc(C(F)(F)F)cc4F)cc3)[nH]2)cn1 [Example 344],1.83
155 to 158 °C,< 0.4 µg/mL,< 0.4 µg/mL,Fc1ccc(-c2nc(Br)c(-c3ccc(OCc4ncc(C(F)(F)F)cc4F)cc3)[nH]2)cn1 [Example 345],2.39
147 to 149 °C,99.1 µg/mL,< 0.4 µg/mL,COc1cc(OCc2ncc(C(F)(F)F)cc2F)ccc1-c1[nH]c(C2CCC(F)(F)C2)nc1Cl (stereo not shown) [Example 346],3.18
142 to 147 °C,83.2 µg/mL,< 0.4 µg/mL,COc1cc(-c2[nH]c(C3CCC(F)(F)C3)nc2Cl)ccc1OCc1ncc(C(F)(F)F)cc1F (stereo not shown) [Example 347],3.28
105 to 110 °C,89.6 µg/mL,22.4 µg/mL,COc1cc(-c2cnc(C3CC(F)(F)C3)[nH]2)ccc1OCc1ncc(C(F)(F)F)cc1F [Example 348],1.76
70 to 75 °C,83.6 µg/mL,10.8 µg/mL,COc1cc(OCc2ncc(C(F)(F)F)cc2F)ccc1-c1cnc(C2CC(F)(F)C2)[nH]1 [Example 349],2.2
218 to 220 °C,53.3 µg/mL,51 µg/mL,Cc1cc(O)ccc1-c1cnc(-c2ccc(F)nc2)[nH]1 [Example 350],1.38

melting point,"solubility at 24 h [1, 3]","solubility at 24 h [1, 4]",Compound,fold induction at 10 µM [2]
216 to 222 °C,85.9 µg/mL,7 µg/mL,Cc1cc(OCc2ncc(C(F)(F)F)cc2F)ccc1-c1cnc(-c2ccc(F)nc2)[nH]1 [Example 351],4.12
204 to 206 °C,9.8 µg/mL,6 µg/mL,Cc1cc(OCc2ncc(C(F)(F)F)cc2F)ccc1-c1[nH]c(-c2ccc(F)nc2)nc1Cl [Example 352],5.48
167 to 169 °C,85.4 µg/mL,0.5 µg/mL,COc1cc(OCc2ncc(C(F)(F)F)cc2F)ccc1-c1[nH]c(C2CC(F)(F)C2)nc1Cl [Example 353],4.08
159 to 161 °C,38.8 µg/mL,1.1 µg/mL,COc1cc(-c2[nH]c(C3CC(F)(F)C3)nc2Cl)ccc1OCc1ncc(C(F)(F)F)cc1F [Example 354],4.44
180 to 183 °C,< 0.3 µg/mL,< 0.3 µg/mL,Fc1ccc(-c2nc(Cl)c(-c3ccc(OCc4ncc(C(F)(F)F)cc4F)cc3)[nH]2)cn1 [Example 355],3.59
145 to 149 °C,7.8 µg/mL,< 0.3 µg/mL,CCSc1ccc(-c2ncc(-c3ccc(OCc4ncc(C(F)(F)F)cc4F)cc3OC)[nH]2)cn1 [Example 357],3.59
160 to 163 °C,1.6 µg/mL,< 0.4 µg/mL,CCSc1ccc(-c2nc(Cl)c(-c3ccc(OCc4ccc(C(F)(F)F)nc4)cc3OC)[nH]2)cn1 [Example 358],4.18
223 to 225 °C,57.3 µg/mL,52.8 µg/mL,Oc1ccc(-c2cnc(-c3ccc(F)nc3)[nH]2)c(Cl)c1 [Example 359],1.75
169 to 171 °C,90.7 µg/mL,0.6 µg/mL,Fc1ccc(-c2ncc(-c3ccc(OCc4ncc(C(F)(F)F)cc4F)cc3Cl)[nH]2)cn1 [Example 360],3.93
158 to 160 °C,3.4 µg/mL,< 0.4 µg/mL,Fc1ccc(-c2nc(Cl)c(-c3ccc(OCc4ncc(C(F)(F)F)cc4F)cc3Cl)[nH]2)cn1 [Example 361],5.51
115 to 117 °C,104 µg/mL,6.9 µg/mL,CCc1cc(OCc2ncc(C(F)(F)F)cc2F)ccc1-c1cnc(-c2ccc(F)nc2)[nH]1 [Example 363],2.78
187 to 188 °C,< 0.4 µg/mL,< 0.4 µg/mL,CCc1cc(OCc2ncc(C(F)(F)F)cc2F)ccc1-c1[nH]c(-c2ccc(F)nc2)nc1Cl [Example 364],2.65
97 to 102 °C,77.9 µg/mL,31.2 µg/mL,COc1cc(OCc2ncc(C(F)(F)F)cc2F)ccc1-c1cnc(C2CCCC2)[nH]1 [Example 365],3.02
139 to 142 °C,82.1 µg/mL,< 0.3 µg/mL,COc1cc(OCc2ncc(C(F)(F)F)cc2F)ccc1-c1[nH]c(C2CCCC2)nc1Cl [Example 367],2.54
158 to 163 °C,82.9 µg/mL,0.5 µg/mL,COc1cc(-c2[nH]c(C3CCCC3)nc2Cl)ccc1OCc1ncc(C(F)(F)F)cc1F [Example 368],2.62
167 to 172 °C,35.9 µg/mL,< 0.3 µg/mL,Fc1ccc(-c2ncc(-c3ccc(OCc4ncc(C(F)(F)F)cc4F)cc3F)[nH]2)cn1 [Example 369],1.26
144 to 146 °C,1.6 µg/mL,1.8 µg/mL,Fc1ccc(-c2nc(Cl)c(-c3ccc(OCc4ncc(C(F)(F)F)cc4F)cc3F)[nH]2)cn1 [Example 370],3.31
155 to 157 °C,88.3 µg/mL,< 0.3 µg/mL,COc1cc(OCc2ncc(C(F)(F)F)cc2F)ccc1-c1[nH]c(C2CCC2)nc1Cl [Example 373],3.03
159 to 162 °C,88.3 µg/mL,1.2 µg/mL,COc1cc(-c2[nH]c(C3CCC3)nc2Cl)ccc1OCc1ncc(C(F)(F)F)cc1F [Example 374],2.6
151 to 154 °C,84.6 µg/mL,0.7 µg/mL,COc1cc(OCc2ncc(C(F)(F)F)cc2F)ccc1-c1[nH]c(C2CC2)nc1Cl [Example 377],1.88
